Series [1] has as its system SMN-luciferase transcripts. Briefly: qRT-PCR of SMN-luciferase transcripts in SMN2-luc cells. Format: cell-based, human. Conditions: 24 hours, relative to DMSO, normalized to GAPDH, aclarubicin at 300 nM, words. On the procedure:
Compounds were tested at three concentrations that display maximal activity in the luciferase assay. Cells were treated as described above for the luciferase assay. Cells were harvested by trypsinization, neutralized with trypsin inhibitor, and washed. RNA was isolated from the cells using TRIZOL Reagent (Invitrogen 15596-026). cDNA was generated using the IMPROM-II Reverse Transcription System (Promega A3801).
The forward primer pair recognizes the exon 5-6 junction, which includes a restriction site that was engineered into the reporter and will exclude amplification of endogenous SMN mRNA. The reverse primers recognize either exon 7 or luciferase for detection of full-length or total SMN-luciferase transcripts respectively. For a reference control, cDNA from the housekeeping gene glyceraldehyde-3-phosphate dehydrogenase (GAPDH) was amplified. The primers used include SMN exon5-forward ([…]) (SEQ ID NO: 3), luciferase-reverse ([…]) (SEQ ID NO: 4), exon7-reverse ([…]) (SEQ ID NO: 5), GAPDH-reverse (G3A) ([…]) (SEQ ID NO: 6) and GAPDH-forward (G3S) ([…]) (SEQ ID NO: 7). qPCR was performed as described in the protocol for iQ SYBRGREEN SUPERMIX (Biorad 170-8882) using an EPPENDORF Mastercycler ep realplex^4 Thermo Cycler. Reactions were incubated for a 10 minute, 94° C. hot start followed by 45 cycles of the following: 94° C. for 45 second, 60° C. for 15 seconds, 72° C. for 45 seconds. Melting curves for each reaction were obtained. Each sample was assayed in triplicate and every plate contained a 5-point cDNA dilution course to calculate amplification efficiency for each primer pair. The Pfaffl method was used to determine the change in transcript levels relative to the DMSO and normalized to GAPDH (Pfaffl, M. W., “A new mathematical model for relative quantification in real-time RT-PCR,” Nucleic Acids Res 2001, 29(9), 3e45).
Based on the new reporter design, it was predicted that this screen could detect increased SMN-luciferase protein levels caused by compounds that stimulate SMN2 transcription, exon 7 inclusion, or by increasing the half-life of the SMN mRNA or protein. Quantitative reverse transcriptase PCR (qRT-PCR) was used to analyze SMN-luciferase mRNAs. All assays used RNA from control and compound-treated SMN2-luc cells and primers pairs were chosen to amplify only the SMN-luciferase derived transcripts (FIG. 4A). A pair of primers were used that specifically detects both full-length (exon 7 included) and Δ7 (exon 7 excluded) SMN-luciferase transcripts (primers 1 and 3). To measure changes in exon 7 splicing efficiency, a primer pair was used that detects only the full-length (exon 7 included) SMN-luciferase transcript (primers 1 and 2).
For each sample, the percent increase in the amount of total SMN-luciferase transcripts (gray bar) and exon 7 included full-length SMN-luciferase transcripts (white bar) was plotted (FIG. 4). Compounds that increase transcription should show increased total SMN-luciferase transcripts (gray bar) with a proportional increase for exon 7 included transcripts (white bar), assuming that proper splicing of exon 7 is not rate limiting. Compounds that stimulate exon 7 inclusion should increase the amount of exon 7 included full-length transcript (white bar) detected with little to no change in the expression of total SMN-luciferase transcripts (gray bar). In these experiments, cells were treated with compound, harvested, and each cell pellet was divided for isolation of RNA and to assay luciferase activity. Each qRT-PCR sample was normalized to the housekeeping gene glyceraldehyde-3-phosphate dehydrogenase (GAPDH). The Pfaffl method was used to calculate the change in the amount of total SMN mRNA and determine whether compound treatments increased SMN transcripts.

The subject of series [2] is SMN2-luciferase reporter. In words: SMN2-luciferase reporter assay (clonal HEK-293 SMN2-luc cells). Format: cell-based, human. On the set-up: % activation: concentration or dose not given beside the values. Conditions: for EC50 / Emax: Homo sapiens; for Emax: read-out: Max % Activity; for Active / % activation: reporter assay; for Max. fold increase: cell-based reporter response to known SMN2 modulating compounds; for % activation: Table 5. The method, then:
The reporter cell lines were plated at 50,000 cells per well in 96-well plates and incubated overnight. Compounds were added to each well and incubated at 37° C. overnight. The final DMSO concentration was 0.1%. Luciferase activity was assayed using either STEADYGLO (PROMEGA E2510) or DUALGLO (PROMEGA E2920) luciferase using the WALLAC ENVISION multilabel reader. For detailed assay conditions see Table 2A. All data points were transformed from CPS to percent increase over basal expression in the treated control wells (DMSO or H2O as appropriate).
Plates were sealed with porous paper tape and incubated for 24 hours. […] For comparison, data points were transformed from CPS to percent activation over basal expression in the DMSO treated control wells.
For comparison, all data points are expressed as percent increase over basal luciferase expression in the control cells.

Series [3] can be described thus: Solubility in PBS / aqueous solution. Format: physicochemical.
In series [4] the test system is SMA mice. In words: SMA mice, intraperitoneal dosing: lifespan, weight, time to right. Conditions: for Time to right: individual pup, raw data. The format is in vivo, mouse. The method, then:
The animal studies included new derivatives of LDN-76070 and LDN-75654. Mice were injected intraperitoneally once daily from post-natal day 1-10. […] Compounds LDN-212014, LDN-212016, LDN-212351, and LDN-212391 were injected into a cohort of animals (3-4 each). […] In the Kaplan-Meier curve that DMSO control decreased survival by 50%—the compounds were in […] (FIG. 26A).
LDN-212014 and LDN-76070 were further tested in A7 SMA model mice. Mice were dosed using compounds dissolved in 100% DMSO injected at 20 mg/kg with each dose administered once daily by intraperitoneal injection. As shown in the black curves in the Kaplan-Meier plot, control animals lived 4-5 days longer than the DMSO vehicle treated animals, indicating toxicity. […] In fact, the compounds display a statistically significant increase in survival compared with the untreated animals. These compounds extend the lifespan of SMA mice despite the DMSO toxicity.
In ‘time to right’ experiments, animals are placed on their backs and the duration for animals to right themselves is recorded. Animals that are unable to right in less than 30 seconds are scored as a failure. DMSO treated animals were unable to right themselves, while a small percentage of untreated animals display the ability to right themselves for up to postnatal day (PND) 11. A larger percentage of treated animals can right themselves past PND 17, and in the case of one animal as late as PND 21.

Series [5] in a line: Liver microsome stability. Particulars: for Stabilityin liver microsomes: Table 8. For orientation: Liver microsomes are a subcellular fraction often used to study metabolism.
Setting [6] is: HEK293, reporter assay, Table 6, read-out: Ec50.
Where [7] appears, read: HEK293, reporter assay, Table 6.
Setting [8] is: aqueous solution, Table 8, grades, read-out: Solubility in aqueous solution.
[9] abbreviates: HEK293, cell-based reporter, known SMN2 modulating compounds, read-out: EC50.

This note sets out measurements from patent US9212209B2, “Screening methods for spinal muscular atrophy” (Indiana University Research and Technology Corporation, priority 2012, dated 2015).

What is called EC50 is the concentration giving half of the maximal effect. By solubility is commonly meant the concentration that dissolves in the medium under given conditions.

≈ marks a conversion by molar mass, not a printed value. Where “and” joins values, the source holds several entries; their conditions need not be identical. Equal values may be shown once. Read-outs that look alike come from different tables or passages of the source. Bounds are passed on as bounds.

On to `CC(/C=C/C(=O)NO)=C\[C@@H](C)C(=O)c1ccc(N(C)C)cc1` [TSA], for which, in series [1], the “exon 7 included full-length SMN-luciferase transcripts” value is given as “increased” and the “total SMN-luciferase transcripts” value is recorded as “increased”.

For the molecule `CC(C)c1cc(C(=O)Nc2nc3ccccc3[nH]2)no1` [LDN-212016], the EC50 in series [2] (HEK293, Table 7, read-out: EC50) is 0.3 µM; in series [2] (setting [6]) it was 0.3 µM. Besides, in series [2] (setting [7]), the Emax was found to be 250%. Further, the Maximum % activation in series [2] (Table 7) came to 162.4 ± 62.4%. In series [2] (Table 6), the Active result is recorded as “Yes”. Also, the solubility in series [3] (PBS, aqueous buffer, read-out: Maximal solubility in PBS) is 500 µM (≈ 135 µg/mL); in series [3] (setting [8]), less than 500 µM. Moreover, the lifespan entry in series [4] (IP once daily post-natal day 1-10, compounds in 20% DMSO, 3-4 animals each, words) is “extension of lifespan”. The “weight of the treated animals” value in series [4] (IP once daily post-natal day 1-10, compounds in 20% DMSO, words) was “increased”. For the same molecule, the Time to right result is “Fail (Fail = >30 sec)” in series [4] (PND 6); “Fail (Fail = >30 sec) (3×) and 25 seconds” in series [4] (PND 7); “Fail (Fail = >30 sec)” in series [4] (PND 8); “Fail (Fail = >30 sec)” in series [4] (PND 9); “Fail (Fail = >30 sec) (3×) and 12 seconds” in series [4] (PND 10); “Fail (Fail = >30 sec) (3×) and 9 seconds” in series [4] (PND 11). Also, the Time to right result in series [4] (PND 12) was “Fail (Fail = >30 sec)”; in series [4] (PND 13) it was “dead and Fail (Fail = >30 sec) (2×) and 11 seconds”; in series [4] (PND 14), “dead (2×) and Fail (Fail = >30 sec) (2×)”; in series [4] (PND 15) it was “dead (3×) and Fail (Fail = >30 sec)”; in series [4] (PND 16), “dead (3×) and Fail (Fail = >30 sec)”; in series [4] (PND 17) it was “dead (3×) and Fail (Fail = >30 sec)”. The Time to right entry in series [4] (PND 18), in series [4] (PND 19) and in series [4] (PND 20) was “dead” each time. Besides, the Stabilityin liver microsomes in series [5] is listed as 3 min. The Stability in series [5] (Table 9) is on record as 3 min.

Regarding `CC(C(=O)O)c1ccc(N2Cc3ccccc3C2=O)cc1` (stereo not drawn) [Indoprofen, indoprofen, reference compound], the EC50 in series [2] (setting [9]) stood at 0.46 µM. The molecule further yielded a Max. fold increase in series [2] of 3 fold. In series [1], the “exon 7 included full-length SMN-luciferase transcripts” value is recorded as “No consistent change” and the “total SMN-luciferase transcripts” value was “No consistent change”.

For `CC[C@@]1(O)C[C@H](O[C@H]2C[C@H](N(C)C)[C@H](O[C@H]3C[C@H](O)[C@H](O[C@H]4CCC(=O)[C@H](C)O4)[C@H](C)O3)[C@H](C)O2)c2c(cc3c(c2O)C(=O)c2c(O)cccc2C3=O)[C@H]1C(=O)OC` [Aclarubicin, aclarubicin, reference compound], the midpoint of the response in series [2] (HEK293), the EC50, lay at 0.298 µM. This molecule also came in with a Max. fold increase in series [2] of 10 fold. Further, in series [1], the “exon 7 included full-length SMN-luciferase transcripts” value is reported as “lesser increase” and the “total SMN-luciferase transcripts” value is on record as “potent increase”.

For `O=C(Nc1ncc(C2(O)CCC2)s1)c1nc2ccccc2[nH]1` [LDN-214098], the EC50 in series [2] (setting [6]) was 0.15 µM. Also, the Emax in series [2] (setting [7]) was found to be 200%. Further, in series [2] (Table 6), the Active result is given as “Yes”. Moreover, the solubility in series [3] (setting [8]) was more than 2000 µM. The Stabilityin liver microsomes in series [5] came out at 59 min.

Turning to `CCCC(CCC)C(=O)O` [Valproic Acid, valproic acid], in series [2] (setting [9]), the EC50 was 10000 µM. The molecule also yielded a Max. fold increase in series [2] of 2.5 fold. In addition, in series [1], the “exon 7 included full-length SMN-luciferase transcripts” value is “increases” and the “total SMN-luciferase transcripts” value is recorded as “increases”. Moreover, in series [1] (listed as VPA), the “exon 7 included full-length SMN-luciferase transcripts” value is listed as “increased” and the “total SMN-luciferase transcripts” value is “increased”.

Turning to `Cc1csc(NC(=O)c2ccc(F)c(Cl)c2)n1` [LDN-211984], in series [2] (setting [6]), the concentration giving a half-maximal response (EC50) turned out to be 2.1 µM. The Emax in series [2] (setting [7]) came out at 200%. Further, the Active entry in series [2] (Table 6) was “Yes”.

For the molecule `CNC(=O)c1ccc2nc(N3CCCCC3)sc2c1` [Compound 79213], the “% activation” value in series [2] was determined as 90%.

With `Cc1cc(NC(=O)C2=NOC(C)C2)no1` (stereo not drawn) [CAL-3], the Active result in series [2] (Table 6) is on record as “No”.

For `COc1cc2c(c(OC)c1)C(c1c(Cl)cccc1Cl)CC(=O)N2` (stereo not drawn) [LDN-76515], in series [2] (Table 6), the Active entry is recorded as “No”.

As to `CC(C)(C)c1cc(=O)[nH]c(NC(=O)c2ccc(F)c(Cl)c2)n1` [LDN-212026], the Active entry in series [2] (Table 6) was “No”.

For the molecule `COc1cc2c(c(OC)c1OC)C(c1coc3ccccc13)CC(=O)N2` (stereo not drawn) [LDN-212389], the Active entry in series [2] (Table 6) is given as “No/Weak”.

In the case of `O=C1CC(c2cc(Br)ccc2F)c2c(ccc3ccccc23)N1` (stereo not drawn) [LDN-212352], in series [2] (Table 6), the Active result is listed as “No”.

Turning to `CC(C)c1cc(C(=O)Nc2ccc3c(c2)OCO3)no1` [LDN-75676], the EC50 in series [2] (setting [6]) was 2.6 µM. Besides, the Emax in series [2] (setting [7]) is 337%. Besides, the “% activation” value in series [2] turned out to be 136%. Besides, the Active entry in series [2] (Table 6) was “Yes”.

Turning to `CC(C)(C)c1cc(NC(=O)c2cnc3ccccc3n2)no1` [LDN-211907], the Active entry in series [2] (Table 6) was “No/Weak”.

Take `CCN1C(=O)c2cccc3c(S(=O)(=O)NC4CCCC4)ccc1c23` [Compound 109657]: the “% activation” value in series [2] stood at 152%.

For `Cc1ccc(-c2cc(-c3ccccc3Cl)[nH]n2)c(O)c1` [Compound 72939], the “% activation” value in series [2] is 102%.
